Measurements: patent US11319551B2, “Methods and compositions for PPO herbicide tolerance in plants” (Monsanto Technology LLC, priority 2015, dated 2022)

Legend:
[1] = molecular target: soybean PPO; experiment: PPO enzyme assay, plant plastid extract; format: biochemical, Glycine max; conditions: 3 μM protogen, 30° C., read-out: S-3100 IC50
Description: (§1) Plant plastid extract was produced used etioplasts and chloroplasts that were prepared from etiolated cotyledons (soybean, Glycine max), etiolated leaves/coleoptiles (corn, Zea mays) and unfolded apical leaves (A. tuberculatus) generally by the procedure described by Grossmann (2010). Soybean (A3555) and corn (LH244) seeds were placed between two sheets of moist germination paper (Anchor Paper Company, Saint Paul, Minn.) in a beaker of water in continuous darkness for eight to ten days. A. tuberculatus plants were grown for 30 days in the greenhouse. Tissue was collected, placed between moist sheets of paper towels and ground to fine powder with a mortar and pestle in liquid nitrogen. Homogenization buffer (50 mM Tris-HCl, pH 7.4, 500 mM sucrose, 1 mM EDTA, 1 mM magnesium chloride, and 2 g/liter bovine serum albumin) was added to the frozen powder at 4:1 (ml homogenization buffer to g fresh weight tissue), mixed vigorously and filtered through four layers of pre-moistened Miracloth. The filtrate was centrifuged at 9299 g for five minutes. The pellet was resuspended in homogenization buffer and centrifuged at 150 g for two minutes. The supernatant solution was centrifuged at 4000 g for fifteen minutes. All centrifugation steps were carried out a 4° C. […]

[2] = molecular target: E. coli HemG (Escherichia coli, UniProt P0ACB4); experiment: PPO enzyme assay, bacterial extract
E. coli HemG, sequence (P0ACB4 whole entry): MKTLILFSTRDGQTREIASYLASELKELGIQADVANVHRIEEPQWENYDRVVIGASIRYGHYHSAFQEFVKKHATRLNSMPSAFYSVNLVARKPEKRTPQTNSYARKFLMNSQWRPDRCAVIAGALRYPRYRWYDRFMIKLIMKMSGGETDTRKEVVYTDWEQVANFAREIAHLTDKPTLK
Description: (§2) This assay used recombinant HemY PPO proteins with plant plastid extract and PPO substrate to identify protoporphyrinogen oxidases that had activity in the presence of a PPO herbicide.
(§3) Recombinant PPO enzymes were expressed in E. coli HemG knockout cell line and extracted for the enzyme assay. Bacterial cells from an overnight culture were used to inoculate 20 ml of fresh media. These cultures were allowed to grow for approximately 48 hrs at 20° C. to a dense culture. Bacterial cells were collected by centrifugation and the cell pellets stored at −80° C. until enzyme assays were performed. Frozen bacterial pellets were resuspended in extraction buffer (50 mM Tris-HCl, pH 7.6, 1 mM EDTA & 1 mM MgCl2) and sonicated (Sonics VibraCell™) for 30 seconds in an ice bath with a one-minute rest period between cycles. For E. coli transformed with a construct encoding E. coli HemG (SEQ ID NO: 76) the broken cells were centrifuged at 200 g for 2 minutes at 4° C. and the supernatant solution was used for PPO enzyme assays after dilution with extraction buffer. […]
(§4) A PPO enzyme assay was conducted to measure PPO activity using the plant plastid extract and bacterial extract preparations with the PPO substrate. PPO activity was measured generally as described by Grossmann (2010).

[3] = test system: R2N30; experiment: PPO enzyme assay, bacterial extract
Description: as §2, §3, §4

[4] = molecular target: corn PPO; experiment: PPO enzyme assay, plant plastid extract; format: biochemical, Zea mays; conditions: 3 μM protogen, 30° C., read-out: S-3100 IC50
Description: as §1

[5] = test system: R2N40; experiment: PPO enzyme assay, bacterial extract
Description: as §2, §3, §4

[6] = read-out: S-3100 IC50, bacterial extract, 3 μM protogen, 37° C.

## CCOC(=O)COc1ncccc1Oc1cc(-n2c(=O)cc(C(F)(F)F)n(C)c2=O)c(F)cc1Cl [S-3100]
[1]
  IC50: 4 nM
[2]
  IC50: > 100000 nM
[3]; R2N30 versus plant PPO enzymes
  less sensitive to the herbicide than the plant PPO enzymes: 10 fold
[3]; [6]
  IC50: 20 nM
[4]
  IC50: 3 nM
[5]; R2N40 versus plant PPO enzymes
  less sensitive to the herbicide than the plant PPO enzymes: 10 fold
[5]; [6]
  IC50: 40 nM
